The values that follow are results of earlier work, collected in patent publication US20040223971A1, “Composition and uses of galectin antagonists” (GlycoGenesys, Inc., priority 2003, published 2004).

One series has as its system BT549 cells. Particulars: BT549 cells without detectable galectin-3.
Series [1] has as its system galectin-3 transfected BT549 cells.

As for `O=c1c(-c2ccc(O)cc2)coc2cc(O)cc(O)c12` [genistein], the apoptosis induction entry in the series on BT549 cells was “effectively induces apoptosis”. Moreover, the “cell cycle arrest / apoptosis” value in series [1] is “cell cycle arrest at the G(2)/M phase takes place without apoptosis induction”.
